Measurements as given in ChEMBL document CHEMBL4811221, “Diosgenin Derivatives as Potential Antitumor Agents: Synthesis, Cytotoxicity, and Mechanism of Action” (J Nat Prod, 2021).

Key:
[1] = tested on: A549; assay: Cytotoxicity against human A549 cells assessed as cell growth inhibition measured after 24 hrs by MTT assay; type: functional, cell-based; conditions: A549, 24 h
[2] = tested on: MCF7; assay: Cytotoxicity against human MCF7 cells assessed as cell growth inhibition measured after 24 hrs by MTT assay; type: functional, cell-based; conditions: MCF7, 24 h
[3] = tested on: HepG2; assay: Cytotoxicity against human HepG2 cells assessed as cell growth inhibition measured after 24 hrs by MTT assay; type: functional, cell-based; conditions: HepG2, 24 h
[4] = tested on: L02; assay: Cytotoxicity against human L02 cells assessed as cell growth inhibition measured after 24 hrs by MTT assay; type: cell-based; conditions: L02, 24 h

Row | Compound | IC50 [1] [µM] | IC50 [2] [µM] | IC50 [3] [µM] | IC50 [4] [µM]
1 | C[C@@H]1CC[C@@]2(OC1)O[C@H]1C[C@H]3[C@@H]4CC=C5C[C@@H](O)CC[C@]5(C)[C@H]4CC[C@]3(C)[C@H]1[C@@H]2C [DISOGENIN] | > 10 | > 10 | > 10 | –
2 | C[C@@H]1CC[C@@]2(OC1)O[C@H]1C[C@H]3[C@@H]4CC=C5C[C@@H](OC(=O)CCC(=O)N6CCN(S(=O)(=O)c7ccccc7)CC6)CC[C@]5(C)[C@H]4CC[C@]3(C)[C@H]1[C@@H]2C | 8.7 | > 10 | > 10 | –
3 | C[C@@H]1CC[C@@]2(OC1)O[C@H]1C[C@H]3[C@@H]4CC=C5C[C@@H](OC(=O)CCC(=O)N6CCc7ccccc7C6)CC[C@]5(C)[C@H]4CC[C@]3(C)[C@H]1[C@@H]2C | – | > 10 | > 10 | –
4 | CC(=O)O[C@H]1C(=O)[C@@]2(C)[C@H]([C@H](OC(=O)c3ccccc3)[C@]3(O)C[C@H](OC(=O)[C@H](O)[C@@H](NC(=O)c4ccccc4)c4ccccc4)C(C)=C1C3(C)C)[C@]1(OC(C)=O)CO[C@@H]1C[C@@H]2O [PACLITAXEL] | 5.4 | – | – | > 100
5 | C[C@@H]1CC[C@@]2(OC1)O[C@H]1C[C@H]3[C@@H]4CC=C5C[C@@H](OC(=O)/C=C\C(=O)N6CCOCC6)CC[C@]5(C)[C@H]4CC[C@]3(C)[C@H]1[C@@H]2C | 5.5 | > 10 | > 10 | –
6 | CCN(CC)C(=O)CCCC(=O)O[C@H]1CC[C@@]2(C)C(=CC[C@H]3[C@@H]4C[C@@H]5O[C@]6(CC[C@@H](C)CO6)[C@@H](C)[C@@H]5[C@@]4(C)CC[C@@H]32)C1 | 7.4 | > 10 | > 10 | –
7 | C[C@@H]1CC[C@@]2(OC1)O[C@H]1C[C@H]3[C@@H]4CC=C5C[C@@H](OC(=O)CCC(=O)N6CC[N+](Cc7ccc(C(C)(C)C)cc7)(Cc7ccc(C(C)(C)C)cc7)CC6)CC[C@]5(C)[C@H]4CC[C@]3(C)[C@H]1[C@@H]2C | 3 | 6 | 6.7 | 21.2
8 | C[C@@H]1CC[C@@]2(OC1)O[C@H]1C[C@H]3[C@@H]4CC=C5C[C@@H](OC(=O)CCC(=O)N6CCN(S(=O)(=O)C7CC7)CC6)CC[C@]5(C)[C@H]4CC[C@]3(C)[C@H]1[C@@H]2C | 4.2 | > 10 | > 10 | –
9 | CCN(CC)C(=O)CCC(=O)O[C@H]1CC[C@@]2(C)C(=CC[C@H]3[C@@H]4C[C@@H]5O[C@]6(CC[C@@H](C)CO6)[C@@H](C)[C@@H]5[C@@]4(C)CC[C@@H]32)C1 | 4.5 | > 10 | > 10 | –
10 | C[C@@H]1CC[C@@]2(OC1)O[C@H]1C[C@H]3[C@@H]4CC=C5C[C@@H](OC(=O)c6ccccc6C(=O)N6CCCC6)CC[C@]5(C)[C@H]4CC[C@]3(C)[C@H]1[C@@H]2C | – | > 10 | > 10 | –
11 | C[C@@H]1CC[C@@]2(OC1)O[C@H]1C[C@H]3[C@@H]4CC=C5C[C@@H](OC(=O)CCC(=O)N6CC[N+](Cc7ccccc7)(Cc7ccccc7)CC6)CC[C@]5(C)[C@H]4CC[C@]3(C)[C@H]1[C@@H]2C | 2.9 | 9.4 | 6.4 | 18.7
12 | C[C@@H]1CC[C@@]2(OC1)O[C@H]1C[C@H]3[C@@H]4CC=C5C[C@@H](OC(=O)c6ccccc6C(=O)N6CCc7ccccc7C6)CC[C@]5(C)[C@H]4CC[C@]3(C)[C@H]1[C@@H]2C | – | > 10 | > 10 | –
13 | Cc1ccc(C[N+]2(Cc3ccc(C)cc3)CCN(C(=O)CCC(=O)O[C@H]3CC[C@@]4(C)C(=CC[C@H]5[C@@H]6C[C@@H]7O[C@]8(CC[C@@H](C)CO8)[C@@H](C)[C@@H]7[C@@]6(C)CC[C@@H]54)C3)CC2)cc1 | 3.6 | > 10 | 6.1 | 18.4
14 | C[C@@H]1CC[C@@]2(OC1)O[C@H]1C[C@H]3[C@@H]4CC=C5C[C@@H](OC(=O)/C=C\C(=O)N6CCCC6)CC[C@]5(C)[C@H]4CC[C@]3(C)[C@H]1[C@@H]2C | – | > 10 | > 10 | –
15 | C[C@@H]1CC[C@@]2(OC1)O[C@H]1C[C@H]3[C@@H]4CC=C5C[C@@H](OC(=O)c6ccccc6C(=O)N6CCNCC6)CC[C@]5(C)[C@H]4CC[C@]3(C)[C@H]1[C@@H]2C | 7.2 | 8.1 | 7.5 | 27.8
16 | Cc1ccc(S(=O)(=O)N2CCN(C(=O)CCC(=O)O[C@H]3CC[C@@]4(C)C(=CC[C@H]5[C@@H]6C[C@@H]7O[C@]8(CC[C@@H](C)CO8)[C@@H](C)[C@@H]7[C@@]6(C)CC[C@@H]54)C3)CC2)cc1 | 4.7 | > 10 | > 10 | –
17 | C[C@@H]1CC[C@@]2(OC1)O[C@H]1C[C@H]3[C@@H]4CC=C5C[C@@H](OC(=O)CCCC(=O)N6CCCC6)CC[C@]5(C)[C@H]4CC[C@]3(C)[C@H]1[C@@H]2C | 5.6 | > 10 | 8.3 | –

Row | Compound | IC50 [1] [µM] | IC50 [2] [µM] | IC50 [3] [µM] | IC50 [4] [µM]
18 | C[C@@H]1CC[C@@]2(OC1)O[C@H]1C[C@H]3[C@@H]4CC=C5C[C@@H](OC(=O)CCC(=O)N6CCOCC6)CC[C@]5(C)[C@H]4CC[C@]3(C)[C@H]1[C@@H]2C | 3.2 | > 10 | 10.4 | 34.3
19 | CCS(=O)(=O)N1CCN(C(=O)CCC(=O)O[C@H]2CC[C@@]3(C)C(=CC[C@H]4[C@@H]5C[C@@H]6O[C@]7(CC[C@@H](C)CO7)[C@@H](C)[C@@H]6[C@@]5(C)CC[C@@H]43)C2)CC1 | 6.2 | > 10 | > 10 | –
20 | C[C@@H]1CC[C@@]2(OC1)O[C@H]1C[C@H]3[C@@H]4CC=C5C[C@@H](OC(=O)CCCC(=O)N6CCOCC6)CC[C@]5(C)[C@H]4CC[C@]3(C)[C@H]1[C@@H]2C | 8.6 | > 10 | > 10 | –
21 | C[C@@H]1CC[C@@]2(OC1)O[C@H]1C[C@H]3[C@@H]4CC=C5C[C@@H](OC(=O)c6ccccc6C(=O)N6CCOCC6)CC[C@]5(C)[C@H]4CC[C@]3(C)[C@H]1[C@@H]2C | – | > 10 | > 10 | –
22 | CCN(CC)C(=O)/C=C\C(=O)O[C@H]1CC[C@@]2(C)C(=CC[C@H]3[C@@H]4C[C@@H]5O[C@]6(CC[C@@H](C)CO6)[C@@H](C)[C@@H]5[C@@]4(C)CC[C@@H]32)C1 | 7.1 | > 10 | > 10 | –
23 | C[C@@H]1CC[C@@]2(OC1)O[C@H]1C[C@H]3[C@@H]4CC=C5C[C@@H](OC(=O)/C=C\C(=O)N6CCc7ccccc7C6)CC[C@]5(C)[C@H]4CC[C@]3(C)[C@H]1[C@@H]2C | 7.6 | – | – | –
24 | COc1ccc(C[N+]2(Cc3ccc(OC)cc3)CCN(C(=O)CCC(=O)O[C@H]3CC[C@@]4(C)C(=CC[C@H]5[C@@H]6C[C@@H]7O[C@]8(CC[C@@H](C)CO8)[C@@H](C)[C@@H]7[C@@]6(C)CC[C@@H]54)C3)CC2)cc1 | 5.7 | 9.3 | 9.9 | 23.3
25 | C[C@@H]1CC[C@@]2(OC1)O[C@H]1C[C@H]3[C@@H]4CC=C5C[C@@H](OC(=O)CCCC(=O)N6CCNCC6)CC[C@]5(C)[C@H]4CC[C@]3(C)[C@H]1[C@@H]2C | 3.2 | 6 | 2 | 14.8
26 | C[C@@H]1CC[C@@]2(OC1)O[C@H]1C[C@H]3[C@@H]4CC=C5C[C@@H](OC(=O)CCC(=O)N6CCCC6)CC[C@]5(C)[C@H]4CC[C@]3(C)[C@H]1[C@@H]2C | – | > 10 | > 10 | –
27 | C[C@@H]1CC[C@@]2(OC1)O[C@H]1C[C@H]3[C@@H]4CC=C5C[C@@H](OC(=O)CCCC(=O)N6CCc7ccccc7C6)CC[C@]5(C)[C@H]4CC[C@]3(C)[C@H]1[C@@H]2C | – | > 10 | > 10 | –
28 | CCN(CC)C(=O)c1ccccc1C(=O)O[C@H]1CC[C@@]2(C)C(=CC[C@H]3[C@@H]4C[C@@H]5O[C@]6(CC[C@@H](C)CO6)[C@@H](C)[C@@H]5[C@@]4(C)CC[C@@H]32)C1 | – | > 10 | > 10 | –
29 | C[C@@H]1CC[C@@]2(OC1)O[C@H]1C[C@H]3[C@@H]4CC=C5C[C@@H](OC(=O)CCC(=O)N6CCN(S(=O)(=O)O)CC6)CC[C@]5(C)[C@H]4CC[C@]3(C)[C@H]1[C@@H]2C | – | > 10 | > 10 | –
30 | C=CS(=O)(=O)N1CCN(C(=O)CCC(=O)O[C@H]2CC[C@@]3(C)C(=CC[C@H]4[C@@H]5C[C@@H]6O[C@]7(CC[C@@H](C)CO7)[C@@H](C)[C@@H]6[C@@]5(C)CC[C@@H]43)C2)CC1 | 4.1 | > 10 | 5.1 | 23.6
31 | C[C@@H]1CC[C@@]2(OC1)O[C@H]1C[C@H]3[C@@H]4CC=C5C[C@@H](OC(=O)CCC(=O)N6CC[N+](Cc7ccc(Cl)cc7)(Cc7ccc(Cl)cc7)CC6)CC[C@]5(C)[C@H]4CC[C@]3(C)[C@H]1[C@@H]2C | 5.4 | > 10 | > 10 | –
32 | C[C@@H]1CC[C@@]2(OC1)O[C@H]1C[C@H]3[C@@H]4CC=C5C[C@@H](OC(=O)CCC(=O)N6CCN(S(=O)(=O)c7ccc(F)cc7)CC6)CC[C@]5(C)[C@H]4CC[C@]3(C)[C@H]1[C@@H]2C | 3.7 | > 10 | > 10 | –
33 | C[C@@H]1CC[C@@]2(OC1)O[C@H]1C[C@H]3[C@@H]4CC=C5C[C@@H](OC(=O)/C=C\C(=O)N6CCNCC6)CC[C@]5(C)[C@H]4CC[C@]3(C)[C@H]1[C@@H]2C | – | 2.3 | > 10 | 39.1
